Reference: patent US6087355A, “Cephalosporin antibiotics” (Microcide Pharmaceuticals, Inc., priority 1996, dated 2000)
Counter-ions that a name gives are not always drawn.

Key:
E. coli ATCC 25992 = assay: In vitro MIC, agar dilution; type: cell-based; conditions: for MIC: Escherichia coli, ATCC25992, read-out: minimum inhibitory concentration (MIC)
Procedure, shortened: (§1)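 Two-fold dilutions of compound (highest working concentration 128 μg/mL, down to ≤0.25 μg/mL, in duplicate) were set into Mueller-Hinton agar. Plates were spot-inoculated at about 10^4 cfu per spot from log-phase cultures and incubated 16-20 hours at 35-36° C. MIC is the lowest concentration inhibiting growth.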

E. faecalis ATCC 29212 = assay: In vitro MIC, agar dilution; type: cell-based; conditions: for MIC: Enterococcus faecalis, ATCC29212, read-out: minimum inhibitory concentration (MIC)
Procedure, shortened: as §1

E. faecalis VanB(Van^R) = assay: In vitro MIC, agar dilution; type: cell-based; conditions: for MIC: Enterococcus faecalis, read-out: minimum inhibitory concentration (MIC)
Procedure, shortened: as §1

E. faecium A491(Amp^R) = assay: In vitro MIC, agar dilution; type: cell-based; conditions: for MIC: Enterococcus faecium, read-out: minimum inhibitory concentration (MIC)
Procedure, shortened: as §1

E. faecium ATCC 35667 = assay: In vitro MIC, agar dilution; type: cell-based; conditions: for MIC: Enterococcus faecium, ATCC35667, read-out: minimum inhibitory concentration (MIC)
Procedure, shortened: as §1

E. faecium VanA(Van^R) = assay: In vitro MIC, agar dilution; type: cell-based; conditions: for MIC: Enterococcus faecium, read-out: minimum inhibitory concentration (MIC)
Procedure, shortened: as §1

P. aeruginosa ATCC 27853 = assay: In vitro MIC, agar dilution; type: cell-based; conditions: for MIC: Pseudomonas aeruginosa, ATCC27853, read-out: minimum inhibitory concentration (MIC)
Procedure, shortened: as §1

[1] = system: S. aureus 76(Meth^R)(lac^+); assay: In vitro MIC, agar dilution; type: cell-based; conditions: for MIC: Staphylococcus aureus, read-out: minimum inhibitory concentration (MIC)
Procedure, shortened: as §1

[2] = system: S. aureus ATCC 13709(Meth^S); assay: In vitro MIC, agar dilution; type: cell-based; conditions: for MIC: Staphylococcus aureus, ATCC13709, S. aureus ATCC 13709(Meth^S), read-out: minimum inhibitory concentration (MIC)
Procedure, shortened: as §1

S. aureus ATCC 29213 = assay: In vitro MIC, agar dilution; type: cell-based; conditions: for MIC: Staphylococcus aureus, ATCC29213, read-out: minimum inhibitory concentration (MIC)
Procedure, shortened: as §1

[3] = system: S. aureus ATCC 33593(Meth^R); assay: In vitro MIC, agar dilution; type: cell-based; conditions: for MIC: Staphylococcus aureus, ATCC33593, read-out: minimum inhibitory concentration (MIC)
Procedure, shortened: as §1

[4] = system: S. aureus PC1(Meth^S)(lac^+); assay: In vitro MIC, agar dilution; type: cell-based; conditions: for MIC: Staphylococcus aureus, read-out: minimum inhibitory concentration (MIC)
Procedure, shortened: as §1

[5] = system: S. aureus Spain #356(Meth^R); assay: In vitro MIC, agar dilution; type: cell-based; conditions: for MIC: Staphylococcus aureus, read-out: minimum inhibitory concentration (MIC)
Procedure, shortened: as §1

[6] = system: S. haemolyticus 05(Meth^R); assay: In vitro MIC, agar dilution; type: cell-based; conditions: for MIC: Staphylococcus haemolyticus, read-out: minimum inhibitory concentration (MIC)
Procedure, shortened: as §1

[7] = system: S. aureus Col(Meth^R)(lac^-); assay: In vitro MIC, agar dilution; type: cell-based; conditions: for MIC: Staphylococcus aureus, read-out: minimum inhibitory concentration (MIC)
Procedure, shortened: (§2)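 Two-fold dilutions (128 to ≤0.25 μg/mL, in duplicate) were poured into Mueller-Hinton agar. Log-phase broth cultures were spot-inoculated at about 10^4 cfu per spot and incubated 35-36°C for 16-20 hours; the MIC was the lowest concentration inhibiting growth. Col is a high-level PBP2a producer; Col 8A is its isogenic PBP2a-lacking partner.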

[8] = system: S. aureus Col8A(Meth^S)(lac^-); assay: In vitro MIC, agar dilution; type: cell-based; conditions: S. aureus Col8A(Meth^S)(lac^-); for MIC: Staphylococcus aureus, read-out: minimum inhibitory concentration (MIC)
Procedure, shortened: as §2

[9] = system: S. aureus strain ATCC 13709 (methicillin-susceptible); assay: Murine model for lethal bacteremic peritonitis; type: in vivo, female Swiss-Webster mice; conditions: Staphylococcus aureus, ATCC13709, SC, 72 h; for responders at 0.3125 mg/kg / responders at 0.625 mg/kg / responders at 2.5 mg/kg / responders at 5 mg/kg: read-out: Survivors; for responders at 1.25 mg/kg: read-out: Survivors (converted); for ED50: two equal doses, IP challenge, read-out: ED50
Procedure, shortened: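 Female Swiss-Webster mice were challenged IP with an LD100 inoculum in 7% hog gastric mucin, then given test drug subcutaneously in twofold increments (0.01–512 mg/kg) as two equal doses at challenge and 2 h later, 10 mice per group. Survival was scored at 72 h; PD50 (total mg/kg) was derived by probit.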

Row | Molecule | MIC (E. coli ATCC 25992) [µg/mL] | MIC (E. faecalis ATCC 29212) [µg/mL] | MIC (E. faecalis VanB(Van^R)) [µg/mL] | MIC (E. faecium A491(Amp^R)) [µg/mL] | MIC (E. faecium ATCC 35667) [µg/mL] | MIC (E. faecium VanA(Van^R)) [µg/mL] | MIC (P. aeruginosa ATCC 27853) [µg/mL] | MIC [1] [µg/mL] | MIC [2] [µg/mL] | MIC (S. aureus ATCC 29213) [µg/mL] | MIC [3] [µg/mL] | MIC [4] [µg/mL] | MIC [5] [µg/mL] | MIC [6] [µg/mL] | MIC [7] [µg/mL] | MIC [8] [µg/mL] | responders at 0.3125 mg/kg [9] [%] | responders at 0.625 mg/kg [9] [%] | responders at 1.25 mg/kg [9] [%] | responders at 2.5 mg/kg [9] [%] | other results
1 | Nc1nc(/C(=N/O)C(=O)N[C@@H]2C(=O)N3C(C(=O)O)=C(Sc4ccncc4CSC4CCNC4)CS[C@H]23)cs1 (stereo partly drawn) [Cmpd 17, (7R)-7-[(Z)-2-(aminothiazol-4-yl)-2-(hydroxyimino)acetamido]-3-[3-(3-pyrrolidinothiomethyl)pyrid-4-ylthio]-3-cephem-4-carboxylate, trifluoroacetic acid salt] | 2 | 0.13 | 0.5 | > 32 | 1 | 0.25 | > 32 | 4 | 0.25 | 0.25 | 2 | 0.25 | 4 | 8 | 2 | 0.5 | 20 | 20 | 50 | 30 | responders at 5 mg/kg [9]: 60%; ED50 [9]: 3.59 mg/kg
2 | NCCCSCc1cnccc1SC1=C(C(=O)O)N2C(=O)[C@@H](NC(=O)/C(=N\O)c3nc(N)sc3Cl)[C@H]2SC1 [Cmpd 27, (7R)-7-[(Z)-2-(2-amino-5-chlorothiazol-4-yl)-2-(hydroxyimino)acetamido]-3-[3-(3-aminopropyl)thiomethylpyrid-4-ylthio]-3-cephem-4-carboxylate, trifluoroacetic acid salt] | 8 | ≤ 0.06 | ≤ 0.06 | 4 | 0.25 | 0.5 | 32 | 1 | 0.13 | 0.25 | 1 | 0.25 | 1 | 2 | 0.5 | 0.13 | 0 | 0 | 20 | 60 | responders at 5 mg/kg [9]: 70%; ED50 [9]: 2.64 mg/kg
3 | CNCCNCCSCc1nnsc1SC1=C(C(=O)O)N2C(=O)[C@@H](NC(=O)/C(=N\OCCF)c3nc(N)sc3Cl)[C@H]2SC1.O=C(O)C(F)(F)F [Cmpd 28, (7R)-7-[(Z)-2-(2-amino-5-chlorothiazol-4-yl)-2-(2-fluoroethoxyimino)acetamido]-3-[(methylaminoethylaminoethylthiomethyl)-1,2,3-thiadiazol-5-ylthio]-3-cephem-4-carboxylate, trifluoroacetic acid salt] | 2 | 0.13 | 0.25 | 16 | 1 | 4 | 32 | 2 | 0.13 | 1 | 4 | 0.5 | 2 | 4 | 2 | 0.25 | 10 | 10 | 40 | 30 | responders at 5 mg/kg [9]: 70%; ED50 [9]: 3.01 mg/kg
4 | NCC[S+]([O-])Cc1cnccc1SC1=C(C(=O)O)N2C(=O)[C@@H](NC(=O)/C(=N\O)c3nc(N)sc3Cl)[C@H]2SC1 (stereo partly drawn) [Cmpd 53, (7R)-7-[(Z)-2-(2-amino-5-chlorothiazol-4-yl)-2-(hydroxyimino)acetamido]-3-(3-aminoethylsulfinylmethylpyrid-4-ylthio)-3-cephem-4-carboxylate, trifluoroacetic acid salt] | 4 | 0.13 | 0.25 | 16 | 1 | 2 | > 32 | 4 | 0.25 | 0.5 | 2 | 1 | 4 | 4 | 4 | 0.5 |  |  |  |  | 
5 | CN(C)C(=O)[C@@H]1CC(SCc2cnccc2SC2=C(C(=O)O)N3C(=O)[C@@H](NC(=O)/C(=N\O)c4nc(N)sc4Cl)[C@H]3SC2)CN1 (stereo partly drawn) [Cmpd 55, (7R)-7-[(Z)-2-(2-amino-5-chlorothiazol-4-yl)-2-(hydroxyimino)acetamido]-3-(3-(5S-5-N,N-dimethylcarboxamidopyrrolidin-3-ylthiomethyl)pyrid-4-ylthio)-3-cephem-4-carboxylate, trifluoroacetic acid salt] | 8 | 0.25 | 0.5 | 16 | 0.5 | 2 | > 32 | 4 | 0.25 | 0.5 | 2 | 1 | 4 | 4 | 4 | 0.5 |  |  |  |  | 
6 | Nc1nc(/C(=N/O)C(=O)N[C@@H]2C(=O)N3C(C(=O)O)=C(Sc4ccncc4CSCCNC=O)CS[C@H]23)c(Cl)s1 [Cmpd 63, (7R)-7-[(Z)-2-(2-amino-5-chlorothiazol-4-yl)-2-(hydroxyimino)acetamido]-3-(3-(N-formylaminoethylthiomethyl)pyrid-4-ylthio)-3-cephem-4-carboxylate, trifluoroacetic acid salt] | 16 | 0.13 | 0.25 | 16 | 0.5 | 1 | > 32 | 2 | 0.25 | 0.25 | 2 | 0.25 | 4 | 2 | 2 | 0.13 |  |  |  |  | 
7 | (7R)-7-[(Z)-2-(aminothiazol-4-yl)-2-(hydroxyimino)acetamido]-3-[(guanidinoethylaminoethylthiomethyl)-1,2,3-thiadiazol-5-ylthio]-3-cephem-4-carboxylate, trifluoroacetic acid salt [Cmpd 12] |  |  |  |  |  |  |  |  |  |  |  |  |  |  |  |  |  |  |  |  | minimum inhibitory concentration (MIC) (E. coli ATCC 25992): 8 µg/mL; minimum inhibitory concentration (MIC) (E. faecalis ATCC 29212): 0.25 µg/mL; minimum inhibitory concentration (MIC) (E. faecalis VanB(Van^R)): 0.5 µg/mL; minimum inhibitory concentration (MIC) (E. faecium A491(Amp^R)): > 32 µg/mL; minimum inhibitory concentration (MIC) (E. faecium ATCC 35667): 1 µg/mL; minimum inhibitory concentration (MIC) (E. faecium VanA(Van^R)): 4 µg/mL; minimum inhibitory concentration (MIC) (P. aeruginosa ATCC 27853): > 32 µg/mL; minimum inhibitory concentration (MIC) [1]: 2 µg/mL; minimum inhibitory concentration (MIC) ([2]; S. aureus ATCC 13709(Meth^S)): 0.25 µg/mL; minimum inhibitory concentration (MIC) (S. aureus ATCC 29213): 0.5 µg/mL; minimum inhibitory concentration (MIC) [3]: 2 µg/mL; minimum inhibitory concentration (MIC) [4]: 0.5 µg/mL; minimum inhibitory concentration (MIC) [5]: 2 µg/mL; minimum inhibitory concentration (MIC) [6]: 2 µg/mL; minimum inhibitory concentration (MIC) [7]: 2 µg/mL; minimum inhibitory concentration (MIC) [8]: 0.5 µg/mL
